Results reported in US10889552B2, “Dihydroxybenzamide compound having HSP90 inhibitory activity or pharmaceutically acceptable salt thereof, and medical use thereof” (priority 2016, dated 2021).

Key:
H1975 cells [1] = assay: Cell viability by MTS analysis in H1975 cells resistant to Gefitinib; format: cell-based; details: H1975, cultured for 3 days
Method: To confirm the cell viability according to the concentration of the compound synthesized in H1975 cells (ATCC) resistant to Gefitinib, MTS [3-(4,5-dimethylthiazol-2-yl)-5-[…]carboxymethoxyphenyl)-2-(4-sulfophenyl)-2H-terazolium, inner salt] analysis was performed. When the cells were cultured so as to occupy 80% of the bottom of the culture dish, the cells were detached and diluted with RPMI 1640 medium to a concentration of 1.5×10^3 cells/well. Each 100 μL of the suspension was added to each well of a 96-well plate and cultured for 14 hours.

H1975 = assay: Cell proliferation / survival inhibition by MTS analysis (H1975); format: cell-based; details: for Inhibition rate at 10 μM (%) / Inhibition rate at 30 μM (%): test system not given
Method: Sk-Br3 (Korean cell line bank), a breast cancer cell, and H1975 cell (ATCC), a nonsmall cell lung cancer, were cultured in RPMI 1640 containing 25 mM HEPES (4-(2-hydroxyethyl)-1-piperazineethanesulfonic acid) and RPMI 1640 containing L-glutamine (containing streptomycin ([…]), penicillin (100 units/mL) and 10% fetal bovine serum (FBS)).
Next, non-metastatic lung cancer cells were treated with Compound 17 and the cell proliferation rate or cell survival rate was measured by MTS [3-(4,5-dimethylthiazol-2-yl)-5-(3-carboxymethoxyphenyl)-1-2H-tetrazolium, inner salt] analysis.
Cells were dispensed in 96-well plates at 3000 cell/well (Sk-Br3) and 2000 cell/well (H1975), and 100 μL of the medium was added per well and then was incubated overnight.
Cell proliferation was evaluated using the Promega Cell Titer 96 Aqueous One Solution cell proliferation assay.
After compound and cell culture, 20 μL of assay substrate solution was added to each well and incubated at 37° C. for an additional 1 hour.
Cell proliferation was confirmed by measuring the absorbance at 490 nm using a microplate reader (Tecan Infinite F200 Proplate reader).

H1975 cells [2] = assay: H1975 colony formation inhibitory effect (clonogenic assay); format: cell-based; details: at 0.05 µM), 3 weeks, FIG. 3
Method: H1975 cells were treated with Compound 17 at a concentration of 0.05 or 0.5 μM for 3 weeks and then clogenic assay was performed.
First, RPMI1640 medium (10% FBS, 0.48% agar) was added to a 6-well plate and hardened, and then, 10000 cells (H1975) were dispensed in a medium containing RPMI1640 medium (10% FBS, 0.33% agar) and solidified. After solidification, the cells were treated with compound at a concentration of 0.05 or 0.5 […] for 24 hours, followed by culturing for 3 weeks, and then colony formation was confirmed using a crystal violet staining solution.

[3] = tested on: HSP90 client protein of EGFR, Her2, Met, Akt, c-Raf, Cpk4; assay: Protein expression analysis (western blot) after Compound 17 treatment; format: cell-based; details: 0.05, 0.1, 0.5 or 1 μM, 24 hours, FIG. 4
Method: Next, the cells were dispensed into 100 mm culture dishes (1×10^6/dish) and adhered to the bottom surface overnight. Compound 17 at a concentration of 0.05, 0.1, 0.5 or 1 μM was added to the cells, followed by further culture for 24 hours.
In addition, cells were treated with DMSO (1%) or geladinamycin (1 μM) as a control and cultured for 24 hours.
The cultured cells were harvested and lysed in ice-cold lysis buffer (23 mM Tris-HCl pH 7.6, 130 mM NaCl, 1% NP40, […], 0.1% SDS (sodium dodecylsulfate)), and 30 μg of the lysate was separated by SDS-PAGE (SDS-polyacrylamide gel electrophoresis) and transferred to a PVDF membrane (Bio-Rad).
Membranes were blocked with TBST (Tween 20 containing iris-Buffered Saline) containing 5% skim milk and incubated with the respective primary antibodies [EGFR (Epidermal growth factor receptor), Her2 (human epidermal growth factor receptor type 2), Met, N-cadherin, E-cadherin, α-tubulin, acetyl-α-tubulin, protein kinase B (Akt), c-Raf, Cdk4 (Cyclin-dependent kinase 4), HSP90, HSP70, PARP (Poly […] Polymerase), caspase 3, cleaved caspase 3, truncated caspase 8, B-cell lymphoma 2 (Bcl-2). Bax or β-Actin, purchased from Cell Signaling Technology (USA)].
After binding to a secondary antibody conjugated with horseradish peroxidase, the protein was visualized by ECL (electrochemiluminescence, GE healthcare, USA).

Log P = format: physicochemical; details: text: measured values of Log P
Method: All experimental data were analyzed using Prism software (version 5.0, Graphpad Software, San Diego, Calif.). In addition, tPSA (Topological Polar Surface Area) calculated using Cherndraw software and the measured values of Log P are shown in Tables 1 and 2 below.

[4] = tested on: HSP90 client protein (Her2, EGFR, Met, c-Raf, Akt), HSP70; assay: Analysis of protein expression (western blot) in H1975 cells, Compound 21f; format: cell-based
Method: Compound 21f having good efficacy was selected and HSP90 client protein proliferation effect in the same cell line was confirmed, in which the HSP90 client proteins were Her2 (human EGFR-related 2), EGFR (epidermal growth factor receptor), Met and c-Raf were used.
H1975 cells resistant to Gefitinib were cultured in a medium supplemented with 10% fetal bovine serum (FBS) for 24 hours, and the cells were detached, harvested and diluted with a RPMI 1640 medium so as to be 5×10^5 cells/well. Each 5 mL of the suspension was added to […] culture dish and cultured for 24 hours. Then, the medium was changed to the culture solution treated with each compound of concentration (21f 0, 0.05, 0.1, 0.5 or 1 μM, GA: 1 μM), and cultured for 24 hours. After culture, the cells were harvested and centrifuged at 1300 rpm for 5 minutes at 4° C., and the supernatant was removed. The pellet was washed with phosphate buffered saline, centrifuged once again under the same conditions, and the supernatant was removed. Lysis buffer was added to the remaining pellet and lysed by vortexing at 5 minute intervals for 30 minutes. The supernatant was separated by centrifugation at 16000 rcf for 4 minutes at 4° C., and proteins were quantified using BCA ([…]) kit. SDS-PAGE (sodium dodecylsulfate-polyacrylamide gel electrophoresis) was performed using 10, 12% running gel and 4% stacking gel (10 mA per gel). The separated proteins were transferred to an immunoblot PVDF, membrane (polyvinylidene fluoride membrane) at 100 V for 75 minutes. The membranes were blocked with 5% skim milk solution for 2 hours and then added a primary antibody diluted in the ratio of 1:750-1,000 in 0.1% tween-20 solution and reacted at 4° C. for 12 hours. After washing three times with TBS-T (Tris-buffered saline and Tween 20 containing Tween 20) and detected with an image analyzer using ECL (enhanced chemiluminescence) solution.

Compound: COc1ccc(CN(C)C(=O)c2cc(Cl)c(O)cc2O)cc1 [Compound 14c, 5-chloro-2,4-dihydroxy-n-(4-methoxybenzyl)-n-methylbenzamide]
- EC50 (H1975 cells [1]): 16.7 µM

Compound: COc1cc(CN(C)C(=O)c2cc(Cl)c(O)cc2O)c(Cl)c(OC)c1OC [Compound 14g, 5-chloro-n-(2-chloro-3,4,5-trimethoxybenzyl)-2,4-dihydroxy-n-methylbenzamide]
- EC50 (H1975 cells [1]): 33.8 µM

Compound: CC(C)c1cc(C(=O)N2CCN(C)CC2c2ccccc2)c(O)cc1O (centres unmarked) [Compound 17, (2,4-dihydroxy-5-isopropylphenyl)(4-methyl-2-phenylpiperazin-1-yl)methanone]
- proliferation rate of the cells (H1975; 0-70 μM, 1, 2 and 3 days, FIG. 2A): inhibited in a concentration-dependent manner
- colony formation of H1975 (H1975 cells [2]): inhibited the colony formation
- HSP protein inhibition / degradation of HSP90 client protein [3]: inhibited HSP protein in concentration-dependent manner

Compound: CC(=O)N1CCN(C(=O)c2cc(Cl)c(O)cc2O)CC1 [Compound 11f, 1-(4-(5-chloro-2,4-dihydroxybenzol)piperazin-1-yl)ethanone]
- Inhibition rate at 10 μM (%) (H1975): 0%
- Inhibition rate at 30 μM (%) (H1975): 10.5%
- LogP (Log P): 0.25

Compound: Cc1ccc(CN(C)C(=O)c2cc(Cl)c(O)cc2O)cc1 [Compound 16b, 5-chloro-2,4-dihydroxy-n-methyl-n-(4-methylbenzyl)benzamide]
- EC50 (H1975 cells [1]): 34.3 µM

Compound: CCCNC(=O)c1ccc(CN(C)C(=O)c2cc(Cl)c(O)cc2O)cc1 [Compound 21c, 5-chloro-2,4-dihydroxy-n-methyl-n-(4-(propylcarbamoyl)benzyl)benzamide]
- EC50 (H1975 cells [1]): 20.8 µM

Compound: 5-chloro-2,4-dihydroxy-n-methyl-n-(3-methylbenzyl)benzamide [Compound 14i]
- EC50 (H1975 cells [1]): 47.5 µM

Compound: COc1ccc(CN(C)C(=O)c2cc(Cl)c(O)cc2O)cc1OC [Compound 14d, 5-chloro-n-(3,4-dimethoxybenzyl)-2,4-dihydroxy-n-methylbenzamide]
- EC50 (H1975 cells [1]): 33.4 µM

Compound: 5-chloro-2,4-dihydroxy-n-methyl-n-(2-methylbenzyl)benzamide [Compound 16a]
- EC50 (H1975 cells [1]): 49.3 µM

Compound: CCNC(=O)c1ccc(CN(C)C(=O)c2cc(Cl)c(O)cc2O)cc1 [Compound 21b, 5-chloro-n-(4-(ethylcarbamoyl)benzyl)-2,4-dihydroxy-n-methylbenzamide]
- EC50 (H1975 cells [1]): 21.7 µM

Compound: O=C(c1cc(Cl)c(O)cc1O)N1CCCCC1 [Compound 11b]
- Inhibition rate at 10 μM (%) (H1975): 7.6%
- Inhibition rate at 30 μM (%) (H1975): 26.3%
- LogP (Log P): 1.69

Compound: CCCNC(=O)c1ccc(CN(C)C(=O)c2cc(C(C)C)c(O)cc2O)cc1 [Compound 21f, 2,4-dihydroxy-5-isopropyl-n-methyl-n-(4-(propylcarbamoyl)benzyl) benzamide]
- proliferation (expression) of the HSP90 client protein ([4]; 0, 0.05, 0.1, 0.5 or 1 μM, 24 hours, FIG. 5): inhibited in a concentration-dependent manner
- concentration at which Akt expression was significantly decreased ([4]; H1975, 24 hours): 0.5 µM
- concentration at which EGFR expression was significantly decreased ([4]; H1975, 24 hours): 0.1 µM
- concentration at which Her2 expression was significantly decreased ([4]; H1975, 24 hours): 0.5 µM
- concentration at which Met expression was significantly decreased ([4]; H1975, 24 hours): 0.5 µM
- concentration at which expression of HSP70 was increased ([4]; H1975, 24 hours): 0.5 µM
